Laboratory results reported in patent US9938274B1, “Naphthyridine compounds, medical combinations and use thereof” (Nanjing Natinefy Pharmatech Co., Ltd., priority 2016, dated 2018).

How the values were obtained:
RET = RET (Homo sapiens (Human), UniProt P07949); experiment: HTRF KinEASE TK kinase inhibition assay, RET; assay type: biochemical
Experimental: A study on inhibition of protein kinases activity at in vitro biochemical level
Material and method: kinases such as c-Met, VEGFR-2, Axl and RET, obtained from Invitrogen; HTRF KinEASE; TK kit (Cisbio Company); 384-well plate (Greiner Company); ATP (Sigma Company), MgCl2 (Sigma Company); PHERAstar FS multifunctional plate reader (BMG Company); conventional centrifuge (StaiteXiangyi Company); incubator (Binder Company).
Preparation of working solution of the compounds: Before test, aliquots of the compounds are removed from the refrigerator, and diluted with pure DMSO to 50× of the level needed; and then the compounds are diluted with deionized water to 4× of the level needed;
Preparation of 1.33× enzymatic buffer: 5× enzymatic buffer (from HTRF kit) is diluted to 1.33× with deionized water, and appropriate components of the final level 1.33× are added: 1.33 mmol/L dithiothreitol (DTT) and 1.33 mmol/L MgCl2;
Preparation of kinase working solution: Met is diluted to 2× final level required, 0.2 ng/μL, with 1.33× enzymatic buffer; […]
Reading HTRF signal: PHERAstar FS is used to read the testing signal, and its setting is as following:
For the original data read from each well, ratio=665 nm/620 nm; […]

[1] = In vivo pharmacokinetic study in rats
Experimental: An In Vivo Pharmacokinetic Study in Rats
For intravenous injection, rats are given a dose of 1 mg/kg. For oral administration, rats are given a dose of 5 mg/kg. […] The whole blood is centrifuged at 8000 rpm for 5 min to collect plasma, which is then transferred to 96-well pallet, and stored at −20° C. till LC-MS/MS testing.
Pharmacokinetic parameters among rats after medication are estimated using the non-compartment model of software WinNonlin.
The peak concentration, Cmax: the actual measurements are used;

U87MG tumor = experiment: Tumor xenograft model, U87MG, tumor growth inhibition; assay type: in vivo, nude mice (BALB/cA nu/nu); conditions: for Tumor growth inhibition rate, % TGI: day 22
Axl kinase = Axl kinase (Homo sapiens (Human), UniProt P30530); experiment: HTRF KinEASE TK kinase inhibition assay, Axl; assay type: biochemical
Sequence of Axl kinase (P30530 26-894): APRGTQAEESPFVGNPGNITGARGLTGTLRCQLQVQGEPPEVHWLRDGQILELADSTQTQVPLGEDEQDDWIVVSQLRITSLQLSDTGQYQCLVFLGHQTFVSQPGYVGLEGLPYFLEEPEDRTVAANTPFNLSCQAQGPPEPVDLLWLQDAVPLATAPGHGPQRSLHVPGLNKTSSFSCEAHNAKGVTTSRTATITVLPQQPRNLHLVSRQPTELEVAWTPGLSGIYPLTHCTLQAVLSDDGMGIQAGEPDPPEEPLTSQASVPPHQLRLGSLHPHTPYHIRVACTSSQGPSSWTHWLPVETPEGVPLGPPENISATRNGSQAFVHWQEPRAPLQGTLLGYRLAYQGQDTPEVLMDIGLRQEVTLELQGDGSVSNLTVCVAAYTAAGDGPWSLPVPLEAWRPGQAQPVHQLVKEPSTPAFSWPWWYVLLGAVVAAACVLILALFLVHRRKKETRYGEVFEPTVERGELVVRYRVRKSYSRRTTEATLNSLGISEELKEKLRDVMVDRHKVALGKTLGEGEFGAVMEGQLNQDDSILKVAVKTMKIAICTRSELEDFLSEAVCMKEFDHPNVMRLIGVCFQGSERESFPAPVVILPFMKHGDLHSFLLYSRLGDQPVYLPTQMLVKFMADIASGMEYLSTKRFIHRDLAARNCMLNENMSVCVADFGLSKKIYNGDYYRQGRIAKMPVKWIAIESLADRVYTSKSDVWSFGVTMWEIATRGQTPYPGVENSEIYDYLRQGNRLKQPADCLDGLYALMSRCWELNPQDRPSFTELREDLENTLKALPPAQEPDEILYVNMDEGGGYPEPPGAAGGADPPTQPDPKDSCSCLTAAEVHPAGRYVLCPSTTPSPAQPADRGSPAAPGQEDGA

Sequence of RET (P07949 29-1114): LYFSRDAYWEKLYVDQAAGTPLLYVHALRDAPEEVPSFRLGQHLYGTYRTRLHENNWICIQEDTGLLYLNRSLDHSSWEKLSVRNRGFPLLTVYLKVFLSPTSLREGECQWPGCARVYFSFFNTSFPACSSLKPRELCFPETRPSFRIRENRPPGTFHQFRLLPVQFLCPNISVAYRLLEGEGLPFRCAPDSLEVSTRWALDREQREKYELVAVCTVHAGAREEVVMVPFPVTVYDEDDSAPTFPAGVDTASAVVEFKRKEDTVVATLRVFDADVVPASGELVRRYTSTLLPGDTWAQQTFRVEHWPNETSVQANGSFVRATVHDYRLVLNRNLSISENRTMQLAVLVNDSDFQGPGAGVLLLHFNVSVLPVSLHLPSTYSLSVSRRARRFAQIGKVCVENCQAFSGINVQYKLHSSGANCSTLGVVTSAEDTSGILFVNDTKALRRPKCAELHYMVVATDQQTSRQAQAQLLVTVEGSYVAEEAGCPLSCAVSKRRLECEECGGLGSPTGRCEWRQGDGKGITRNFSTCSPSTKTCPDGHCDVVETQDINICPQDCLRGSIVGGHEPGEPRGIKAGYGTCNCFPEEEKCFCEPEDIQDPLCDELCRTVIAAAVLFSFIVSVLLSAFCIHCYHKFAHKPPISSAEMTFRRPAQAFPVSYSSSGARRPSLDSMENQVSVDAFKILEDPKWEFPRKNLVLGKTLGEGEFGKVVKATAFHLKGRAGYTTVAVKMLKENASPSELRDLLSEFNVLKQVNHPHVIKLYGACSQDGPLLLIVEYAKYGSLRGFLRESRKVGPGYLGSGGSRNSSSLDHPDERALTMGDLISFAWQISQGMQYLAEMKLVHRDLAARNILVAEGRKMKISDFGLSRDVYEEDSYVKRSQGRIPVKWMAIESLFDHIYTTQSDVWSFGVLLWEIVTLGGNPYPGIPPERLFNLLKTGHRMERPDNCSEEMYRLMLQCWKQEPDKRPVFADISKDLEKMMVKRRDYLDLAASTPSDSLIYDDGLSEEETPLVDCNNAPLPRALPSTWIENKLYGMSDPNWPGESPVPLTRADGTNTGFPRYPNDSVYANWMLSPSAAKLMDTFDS

SMILES: CC(C)(O)COc1ccc2c(Oc3ccc(Nc4nccc5[nH]cc(-c6ccc(F)cc6)c(=O)c45)cc3F)ccnc2c1 [Example 4, 5-((3-fluoro-4-((7-(2-hydroxy-2-methylpropoxy)quinolin-4-yl)oxy)phenyl)amino)-3-(4-fluorophenyl)-1,6-naphthyridin-4(1H)-one]
- IC50 (RET): 62 nM
- CL ([1]; 5 mg/kg i.g.): 0.12 L/h/kg
- Vz ([1]; 5 mg/kg i.g.): 1.46 L/kg
- AUC(0-t) ([1]; rat, plasma, iv, 1 mg/kg i.v.): 11500 ng·h/mL
- Cmax ([1]; rat, plasma, iv, 1 mg/kg i.v.): 10800 ng/mL
- clearance ([1]; rat, plasma, iv, 1 mg/kg i.v.): 0.5 mL/min/kg
- half-life ([1]; rat, plasma, iv, 1 mg/kg i.v.): 598 min
- Vd ([1]; rat, plasma, iv, 1 mg/kg i.v., read-out: Vz): 0.47 L/kg
- bioavailability ([1]; rat, plasma, oral, 5 mg/kg i.g. vs 1 mg/kg i.v., read-out: F (absolute bioavailability)): 71.8%
- AUC(0-t) ([1]; rat, plasma, po, 5 mg/kg i.g.): 41300 ng·h/mL
- Cmax ([1]; rat, plasma, po, 5 mg/kg i.g.): 4310 ng/mL
- half-life ([1]; rat, plasma, po, 5 mg/kg i.g.): 502 min
- Tumor growth inhibition rate, % TGI (U87MG tumor; 3 mg/kg p.o. QD): 87.0%
- Tumor growth inhibition rate, % TGI (U87MG tumor; 10 mg/kg p.o. QD): 105.9%
- Regression of tumor (tumor regression rate) (U87MG tumor; 6 animals per group): is 100% (6/6)
- IC50 (Axl kinase): 15.7 nM
